Data published in patent US11739350B2 (priority 2018, dated 2023).

Assays:
[1] = tested on: patient-derived pancreatic cancer cell line (Patient 25)

GSK126
Cell viability (%) relative to mock vehicle-treated cells (title: GSK126-induced cytotoxicity (%)) (BxPC3): 96.07% | Cell viability (%) relative to mock vehicle-treated cells (title: GSK126-induced cytotoxicity (%)) [1]: 80.82% | Cell viability (%) relative to mock vehicle-treated cells (title: GSK126-induced cytotoxicity (%)) (786-0): 111.99% | Cell viability (%) relative to mock vehicle-treated cells (title: GSK126-induced cytotoxicity (%)) (4T1): 113.57% | Cell viability as a percentage of control (cells treated with mock EVs and vehicle control) (BXPC3 cells): 90.78 percentage of control | Cell viability as a percentage of control (cells treated with mock EVs and vehicle control) (786-0 cells): 98.35 percentage of control | Cell viability as a percentage of control (cells treated with mock EVs and vehicle control) (Patient 25): 64.14 percentage of control
